Test results reported in patent publication US20250381165A1, “Method of Use for Benzofuran Compounds” (Tampa Bay Research Institute, Inc., priority 2024, published 2025).

System: splenocytes (B3Z activation)
Assay: In vivo SIINFEKL loading, splenocytes used ex vivo to activate B3Z
Set-up: species or system C57BL/6NCrl mice
Method: Six- to ten-week-old male and female C57BL/6NCrl mice (Charles River Laboratories, Wilmington MA; cat. no. 027) were used for all animal studies. The mice were maintained in accord with the NIH Guide for the Care and Use of Laboratory Animals. Experimental procedures were performed in accord with research protocols approved by the Tampa Bay Research Institute's Institutional Animal Care and Use Committee. Mice were maintained in an INOVIVE individually ventilated cage system with 3 mice per cage containing 100% virgin wood pulp bedding (Harlan Teklad™, Harlan Sprague Dawley Inc., Indianapolis, IA; cat. n.o 7099). Water and food (Harlan Teklad™; cat. no. 8640) were available ad libitum. The mice were maintained on a cycle of 12 h of light and 12 h of dark in an environment with a temperature of 74-76° […]. and 40-60% humidity. All cages underwent 40 air changes hourly in the negative pressure mode, in accordance with manufacturer's recommendations. Both the intake and exhaust air from the system were filtered through HEPA filters to maintain a clean environment. Stock solutions of BzFβ were solubilized in alkaline water (pH 10) and then sterile filtered through 0.22 µm syringe filters. BzFβ used for iv or im injections was diluted in 0.9% saline (normal saline). The stock solutions of the SIINFEKL peptide were prepared in 1× calcium/magnesium free Dulbecco's phosphate-buffered saline (DPBS; ThermoFisher Scientific, cat. no. 14190144).
Since the oral route of drug delivery is preferred, various doses of BzFβ (1, 2, 4 mg) were administered by oral gavage, immediately following an iv injection of 50 μg SIINFEKL peptide. One-hour post-treatment the blood and spleens from each mouse was collected. […] The cell count was determined using the MUSE cell viability kit (MCH600103) and MUSE Cell Analyzer (Luminex Corp, Austin TX).
One hour later the splenocytes were isolated and immediately tested for peptide loading or used to activate B3Z cells. […] The colorimetric response was allowed to develop for 15-240 min and the OD 560 nm was measured at various time points using a Synergy HTX plate reader. […]

O=C(O)/C=C/c1ccc2occc2c1 [BzFβ, (2E)-3-(1-benzofuran-5-yl)prop-2-enoic acid]
ability of splenocytes to activate B3Z, three routes (gavage 1 mg, iv 50 μg or im 100 μg after iv 50 μg SIINFEKL, 1 h): successful at enhancing the ability of the splenocytes to activate B3Z
B3Z response, comparison of routes (iv 50 μg BzFβ): greatest response
B3Z response to splenocytes versus peptide alone (oral gavage 1, 2, 4 mg after iv 50 μg SIINFEKL, 1 h): significantly greater response
